Measurements taken from paper PMC10706804, “Synthesis and Characterization of a New Class of Chromene-Azo Sulfonamide Hybrids as Promising Anticancer Candidates with the Exploration of Their EGFR, hCAII, and MMP-2 Inhibitors Based on Molecular Docking Assays” (International Journal of Molecular Sciences, 2023).
Where “and” joins values, the source holds several entries; their conditions need not be identical. Equal values may be shown once.

Legend:
[1] = system: human liver carcinoma (HepG-2); test: MTT cytotoxicity, HepG-2; format: cell-based
Text: (§1) Three human tumorous cell lines—human colon carcinoma (HCT-116), human liver carcinoma (HepG-2), and human breast adenocarcinoma (MCF-7)—were subjected to cytotoxic behavior, employing the MTT analysis. Moreover, a normotoxicity assessment was employed against normal Vero cell line (African Green Monkey Kidney cells) for selected active compounds to determine their therapeutic safety. […] The inhibitory performance of derivatives 1a–e, 2a–e, 7a–g, 8, and 11a–e, and its derived relation to the cell proliferation of these three cancers, are described in Table 1 and Figure 2. […] Characteristically, the inhibitory activity was enhanced via incorporating the azo moieties in compounds 2a–b.
(§2) The cytotoxic activity was appraised using the 3-(4,5-dimethylthiazol-2-yl)-2,5-diphenyl-tetrazolium bromide (MTT) colorimetric assay as reported previously.

[2] = system: human breast adenocarcinoma (MCF-7); test: MTT cytotoxicity, MCF-7; format: cell-based
Text: as §1, §2

[3] = system: human colon carcinoma (HCT-116); test: MTT cytotoxicity, HCT-116; format: cell-based; conditions: HCT-116 cells
Text: as §1, §2

MMP-2 = molecular target: T1, MMP-2 (Homo sapiens, UniProt P08253); test: MMP-2 Inhibitor Screening Assay Kit (colorimetric); conditions: for IC50: IC50 on MMP-2, MMP-2 inhibitor screening kit; for anti-MMP-2 inhibition at the first concentration: first concentration of two-fold serial dilutions
T1 sequence (P08253 110-660): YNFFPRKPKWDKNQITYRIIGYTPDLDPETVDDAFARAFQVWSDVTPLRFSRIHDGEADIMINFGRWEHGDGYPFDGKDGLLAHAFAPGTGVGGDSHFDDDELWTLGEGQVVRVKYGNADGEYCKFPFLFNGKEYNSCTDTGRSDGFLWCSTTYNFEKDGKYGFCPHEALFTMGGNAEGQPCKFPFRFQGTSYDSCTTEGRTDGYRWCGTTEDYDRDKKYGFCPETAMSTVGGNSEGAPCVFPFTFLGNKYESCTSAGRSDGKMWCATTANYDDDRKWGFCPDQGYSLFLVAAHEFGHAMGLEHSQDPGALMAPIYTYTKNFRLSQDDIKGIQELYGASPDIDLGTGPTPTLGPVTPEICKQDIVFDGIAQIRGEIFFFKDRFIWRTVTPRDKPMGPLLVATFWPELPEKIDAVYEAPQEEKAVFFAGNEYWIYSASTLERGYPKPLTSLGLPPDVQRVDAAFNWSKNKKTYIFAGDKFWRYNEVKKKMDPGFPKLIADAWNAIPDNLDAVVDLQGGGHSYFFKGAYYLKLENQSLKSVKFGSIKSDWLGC

cytosolic hCA II = molecular target: T2, cytosolic hCA II (Bos taurus, UniProt P00921); test: CA-II inhibition assay (esterase activity, 4-NPA); format: biochemical, bovine; conditions: reduction in esterase activity, 4-NPA substrate; read-out: IC50 against hCA II
T2 construct: purchased Sigma–Aldrich C2624
T2 sequence (P00921 whole entry): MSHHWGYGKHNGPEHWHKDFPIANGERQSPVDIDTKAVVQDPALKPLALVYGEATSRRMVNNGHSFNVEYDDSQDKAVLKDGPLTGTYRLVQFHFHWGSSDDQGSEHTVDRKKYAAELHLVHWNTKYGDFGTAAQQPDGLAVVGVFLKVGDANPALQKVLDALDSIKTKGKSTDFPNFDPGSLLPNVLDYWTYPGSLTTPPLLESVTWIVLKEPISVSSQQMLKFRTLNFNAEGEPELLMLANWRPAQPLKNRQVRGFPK
Description: The CA-II inhibition assay for the analyzed molecules was performed based on the measurement of the reduction in esterase activity on the substrate p-nitrophenyl acetate (4-NPA). Briefly, the total mixture volume was 200 µL in a well containing 140 µL (20 mM HEPES) Tris buffer (pH 7.4), 20 µL of the enzyme (from bovine, Sigma–Aldrich, C2624, St. Louis, MO, USA), and 20 µL (0.5 mg/mL in DMSO) of the investigated derivatives, which were mixed and incubated at 25 °C for 15 min. […] The results, attained after the reactions were completed in triplicate, were quantified by the equation given below. The percent inhibition for each sample was calculated as Inhibition (%) = [(C − T)/C] × 100, where C (i.e., control) = total enzyme activity without inhibitor and T (i.e., test sample) = activity in the presence of test compound.

[4] = system: normal Vero cell line (Vero CCL-81); test: Normotoxicity assessment, normal Vero cell line; format: cell-based, African Green Monkey; conditions: Chlorocebus sabaeus; normal Vero CCL-81 cells, cytotoxicity
Text: as §1, §2

EGFR = molecular target: T3, EGFR (Homo sapiens, UniProt P00533); test: EGFR kinase assay kit inhibition; format: biochemical
T3 construct: purchased BPS Bioscience 40321
T3 sequence (P00533 25-1210): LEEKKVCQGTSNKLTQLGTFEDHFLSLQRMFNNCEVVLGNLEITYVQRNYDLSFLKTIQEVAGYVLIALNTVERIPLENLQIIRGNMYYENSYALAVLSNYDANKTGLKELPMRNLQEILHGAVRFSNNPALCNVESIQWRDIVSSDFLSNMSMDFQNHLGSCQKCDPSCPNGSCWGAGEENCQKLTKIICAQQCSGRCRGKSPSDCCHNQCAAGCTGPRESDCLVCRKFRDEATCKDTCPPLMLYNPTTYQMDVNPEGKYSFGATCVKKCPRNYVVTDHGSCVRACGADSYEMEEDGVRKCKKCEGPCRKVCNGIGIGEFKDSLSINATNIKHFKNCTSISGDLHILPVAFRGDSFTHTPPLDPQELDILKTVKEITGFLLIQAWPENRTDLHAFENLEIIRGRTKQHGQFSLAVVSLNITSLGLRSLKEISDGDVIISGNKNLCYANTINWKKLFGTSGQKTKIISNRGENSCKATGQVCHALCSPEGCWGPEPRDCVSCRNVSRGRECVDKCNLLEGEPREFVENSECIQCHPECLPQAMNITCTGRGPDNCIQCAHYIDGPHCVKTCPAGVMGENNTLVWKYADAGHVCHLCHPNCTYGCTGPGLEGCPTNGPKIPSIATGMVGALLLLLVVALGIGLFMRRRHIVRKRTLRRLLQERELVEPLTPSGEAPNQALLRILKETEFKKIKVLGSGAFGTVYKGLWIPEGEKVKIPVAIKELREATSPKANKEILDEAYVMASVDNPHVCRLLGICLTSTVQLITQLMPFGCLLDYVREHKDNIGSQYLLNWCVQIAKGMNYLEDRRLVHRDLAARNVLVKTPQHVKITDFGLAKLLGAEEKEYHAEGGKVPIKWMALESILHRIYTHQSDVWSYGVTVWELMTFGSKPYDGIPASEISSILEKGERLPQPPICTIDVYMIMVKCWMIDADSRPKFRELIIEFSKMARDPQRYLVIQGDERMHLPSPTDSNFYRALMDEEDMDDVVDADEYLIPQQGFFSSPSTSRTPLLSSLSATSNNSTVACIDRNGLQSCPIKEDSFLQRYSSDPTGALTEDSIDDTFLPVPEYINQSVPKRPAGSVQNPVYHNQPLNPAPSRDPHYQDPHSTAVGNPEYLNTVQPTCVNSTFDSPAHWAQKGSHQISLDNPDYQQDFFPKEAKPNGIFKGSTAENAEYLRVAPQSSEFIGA
Description: After ADP is converted into ATP, ATP can be used as the substrate of the luciferase-catalyzed reaction to generate an optical signal, which is positively correlated with kinase activity. […] The plate was incubated at 30 °C for 40 min.

[5] = Homo sapiens, HepG2, HepG-2 cells
[6] = Homo sapiens, MCF7, MCF-7 cells

| IC50 (MMP-2) | IC50 (cytosolic hCA II) [µM] | IC50 (EGFR) [µM] | anti-MMP-2 inhibition at the first concentration (MMP-2) | SMILES | IC50 [1, 5] [µM] | IC50 [2, 6] [µM] | IC50 ([3]; Homo sapiens) [µM] | IC50 ([1]; HepG-2 cells) [µM] | IC50 ([2]; MCF-7 cells) [µM] | IC50 [3] [µM] | IC50 (µM) HCT-116 [3] | IC50 [4] [µM] |
| --- | --- | --- | --- | --- | --- | --- | --- | --- | --- | --- | --- | --- |
| – | – | – | – | CCOC(=O)C1=C(N/C(=C(/C#N)C(=O)OCC)c2ccc(C)cc2)Oc2cc(O)c(/N=N/c3ccc(S(=O)(=O)NC(C)=O)cc3)cc2C1c1ccc(C)cc1 (centres unmarked) [11b] | 147 ± 6.41 | 66 ± 3.91 | 39.3 ± 2.63 | – | – | – | – | – |
| – | – | – | – | N.N.[Cl][Pt][Cl] [Cisplatin, reference compound] | – | – | – | 10.9 ± 0.19 | 14.66 ± 0.03 | 8.36 ± 0.07 | – | – |
| ~12.3 µM and 12.3 µM | – | – | – | CNC(=O)c1cc(Oc2ccc(NC(=O)Nc3ccc(Cl)c(C(F)(F)F)c3)cc2)ccn1 [Sorafenib, reference compound] | – | – | – | – | – | – | – | – |
| – | 711 | – | – | CCOC(=O)C1=C(N)Oc2cc(O)c(/N=N/c3ccc(S(N)(=O)=O)cc3)cc2C1c1ccc(C)cc1 (centres unmarked) [7b] | 51.9 | 29.5 ± 3.29 | 17.3 ± 4.29 | 45.7 ± 2.88 | – | – | – | – |
| – | – | – | – | CCOC(=O)C1=C(N)Oc2cc(O)c(/N=N/c3ccc(S(N)(=O)=O)cc3)cc2C1c1ccc(F)cc1 (centres unmarked) [7e] | 2.92 ± 3.52 | 6.15 ± 1.23 | 8 ± 3.45 | – | – | – | – | – |
| – | 314 | – | – | CCOC(=O)C1=C(N)Oc2cc(O)c(/N=N/c3ccc(S(N)(=O)=O)cc3)cc2C1c1ccc(Cl)cc1Cl (centres unmarked) [7g] | 1.74 | 1.72 ± 2.5 | 1.74 ± 4.06 | 1.63 ± 2.36 | – | – | good potency | – |
| – | – | – | – | COc1cccc2c1C(=O)c1c(O)c3c(c(O)c1C2=O)C[C@@](O)(C(=O)CO)C[C@@H]3O[C@H]1C[C@H](N)[C@H](O)[C@H](C)O1 [Doxorubicin, reference compound] | 0.66 ± 0.02 | 0.64 ± 0.03 | 0.9 ± 0.07 | – | – | – | – | – |
| – | – | – | – | CCOC(=O)C1=C(N)Oc2cc(O)c(/N=N/c3ccc(S(N)(=O)=O)cc3)cc2C1c1ccc([N+](=O)[O-])cc1 (centres unmarked) [7d] | 45.9 | 97.9 ± 3.08 | 114 ± 5.34 | 34.9 ± 2.79 | – | – | – | – |
| – | – | – | – | CCOC(=O)C1=C(N/C(=C(/C#N)C(=O)OCC)c2ccc(C)cc2)Oc2cc(O)c(/N=N/c3ccc(S(=O)(=O)Nc4cc(C)no4)cc3)cc2C1c1ccc(C)cc1 (centres unmarked) [11e] | 17.3 ± 1.06 | 23.6 ± 2.05 | 18.4 ± 1.19 | – | – | – | – | 162 ± 6.48 |
| – | – | – | – | CCOC(=O)C1=C(N)Oc2cc(O)c(/N=N/c3ccc(S(N)(=O)=O)cc3)cc2C1c1ccc(OC)cc1 (centres unmarked) [7c] | 34.9 | 104 ± 2.65 | 70.8 ± 1.85 | 51.8 ± 1.02 | – | – | – | – |
| ~64.8 µM and 64.8 µM | 164 | 12.7 | approximately 80.93% | CCOC(=O)C1=C(N)Oc2cc(O)c(/N=N/c3ccc(S(N)(=O)=O)cc3)cc2C1c1ccc(Cl)cc1 (centres unmarked) [7f] | 1.63 | 3.93 ± 0.09 | 3.57 ± 0.11 | 1.74 ± 0.07 | – | – | good potency | – |
| – | – | – | – | CCOC(=O)C1=C(N/C(=C(/C#N)C(=O)OCC)c2ccc(C)cc2)Oc2cc(O)c(/N=N/c3ccc(S(N)(=O)=O)cc3)cc2C1c1ccc(C)cc1 (centres unmarked) [11a] | 32.2 ± 1.79 | 20.8 ± 1.38 | 12.2 ± 0.96 | – | – | – | – | 139 ± 5.26 |
| ~113 µM and 113 µM | 301 | 23.4 | ~73.89% | CCOC(=O)C1=C(N)Oc2cc(O)c(/N=N/c3ccc(S(N)(=O)=O)cc3)cc2C1c1ccccc1 (centres unmarked) [7a] | 3.92 ± 0.09 | 13.05 ± 0.12 | 6.82 ± 0.19 | – | – | – | – | – |
| – | – | – | – | CCOC(=O)C1=C(N/C(=C(/C#N)C(=O)OCC)c2ccc(C)cc2)Oc2cc(O)c(/N=N/c3ccc(S(=O)(=O)NC(=N)N)cc3)cc2C1c1ccc(C)cc1 (centres unmarked) [11c] | 73.8 ± 2.89 | 105 ± 5.78 | 79.5 ± 3.65 | – | – | – | – | 328 ± 8.26 |
| – | 267 | – | – | CCOC(=O)C1=C(N/C(=C(/C#N)C(=O)OCC)c2ccc(C)cc2)Oc2cc(O)c(/N=N/c3ccc(S(=O)(=O)Nc4nccs4)cc3)cc2C1c1ccc(C)cc1 (centres unmarked) [11d] | 4.71 ± 0.47 | 9.13 ± 0.93 | 6.32 ± 0.68 | – | – | – | – | 278 ± 6.45 |
